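Dose response: 5 concentrations. Exposure: 48 h. Format: 96-well plates. Endpoint: linear interpolation; highest concentration if not reached. GI50 = concentration required for 50% inhibition of growth.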 Calls of active or inactive are those of the source. Cut-off read from the data, not from the text of the source: active = GI50 up to about 1.1 µM and inactive = higher.
Experiments:
Test in all cases: DTP human tumour cell line panel, 48 h
A549 = system: A549
NCI-H226 = system: NCI-H226
SW-620 = system: SW-620
NCI-H522 = system: NCI-H522
NCI/ADR-RES = system: NCI/ADR-RES
MOLT-4 = system: MOLT-4
NCI-H460 = system: NCI-H460
UACC-257 = system: UACC-257
SN12C = system: SN12C
CCRF-CEM = system: CCRF-CEM
A498 = system: A498
SF-268 = system: SF-268
OVCAR-3 = system: OVCAR-3
786-0 = system: 786-0
MDA-MB-231 = system: MDA-MB-231
SNB-75 = system: SNB-75
SNB-19 = system: SNB-19
COLO 205 = system: COLO 205
LOX IMVI = system: LOX IMVI
OVCAR-5 = system: OVCAR-5
SK-MEL-2 = system: SK-MEL-2
K562 = system: K562
HCT-116 = system: HCT-116
U-251 = system: U-251
NCI-H23 = system: NCI-H23
HT-29 = system: HT-29
MDA-N = system: MDA-N
Malme-3M = system: Malme-3M
MCF7 = system: MCF7
DU-145 = system: DU-145
EKVX = system: EKVX
TK-10 = system: TK-10
IGROV-1 = system: IGROV-1
M14 = system: M14
HCT-15 = system: HCT-15
PC-3 = system: PC-3
RPMI-8226 = system: RPMI-8226
SF-539 = system: SF-539
BT-549 = system: BT-549
SF-295 = system: SF-295
HOP-92 = system: HOP-92
HCC 2998 = system: HCC 2998
OVCAR-8 = system: OVCAR-8
T47D = system: T47D
CAKI-1 = system: CAKI-1
HL-60 = system: HL-60
KM12 = system: KM12
OVCAR-4 = system: OVCAR-4
RXF 393 = system: RXF 393
SK-MEL-28 = system: SK-MEL-28
ACHN = system: ACHN
UO-31 = system: UO-31
MDA-MB-435 = system: MDA-MB-435
HOP-62 = system: HOP-62
SR = system: SR

COc1cc(O)c2c(=O)c(O)c(-c3ccc(O)c(OC)c3)oc2c1 [RHAMNAZIN]
GI50 (A549): > 22.9 µM (inactive)
GI50 (NCI-H226): > 26.5 µM (inactive)
GI50 (SW-620): 18.5 µM (inactive)
GI50 (NCI-H522): 2.3 µM (inactive)
GI50 (NCI/ADR-RES): 5.05 µM (inactive)
GI50 (MOLT-4): 4.41 µM (inactive)
GI50 (NCI-H460): 2.64 µM (inactive)
GI50 (UACC-257): > 100 µM (inactive)
GI50 (SN12C): > 100 µM (inactive)
GI50 (CCRF-CEM): 2.92 µM (inactive)
GI50 (A498): 2.73 µM (inactive)
GI50 (SF-268): 1.89 µM (inactive)
GI50 (OVCAR-3): 2.52 µM (inactive)
GI50 (786-0): 3.44 µM (inactive)
GI50 (MDA-MB-231): 5.57 µM (inactive)
GI50 (SNB-75): 2.28 µM (inactive)
GI50 (SNB-19): 3.83 µM (inactive)
GI50 (COLO 205): 33.7 µM (inactive)
GI50 (LOX IMVI): 3.19 µM (inactive)
GI50 (OVCAR-5): > 100 µM (inactive)
GI50 (SK-MEL-2): > 100 µM (inactive)
GI50 (K562): 4.37 µM (inactive)
GI50 (HCT-116): 5.15 µM (inactive)
GI50 (U-251): 2.19 µM (inactive)
GI50 (NCI-H23): > 26.5 µM (inactive)
GI50 (HT-29): 44.2 µM (inactive)
GI50 (MDA-N): 4.8 µM (inactive)
GI50 (Malme-3M): > 100 µM (inactive)
GI50 (MCF7): 2.72 µM (inactive)
GI50 (DU-145): > 100 µM (inactive)
GI50 (EKVX): > 22.3 µM (inactive)
GI50 (TK-10): > 100 µM (inactive)
GI50 (IGROV-1): > 100 µM (inactive)
GI50 (M14): 4.66 µM (inactive)
GI50 (HCT-15): > 19.6 µM
GI50 (PC-3): 11 µM (inactive)
GI50 (RPMI-8226): 5.98 µM (inactive)
GI50 (SF-539): 3.7 µM (inactive)
GI50 (BT-549): 2 µM (inactive)
GI50 (SF-295): > 100 µM (inactive)
GI50 (HOP-92): 0.838 µM (active)
GI50 (HCC 2998): 7.6 µM (inactive)
GI50 (OVCAR-8): 3.52 µM (inactive)
GI50 (T47D): > 100 µM (inactive)
GI50 (CAKI-1): 3.5 µM (inactive)
GI50 (HL-60): 4.11 µM (inactive)
GI50 (KM12): 3.47 µM (inactive)
GI50 (OVCAR-4): 2.48 µM (inactive)

CC(=O)Nc1nnc(S(C)(=O)=O)s1
GI50 (A549): > 100 µM (inactive)
GI50 (NCI-H226): > 100 µM (inactive)
GI50 (SW-620): > 100 µM (inactive)
GI50 (NCI/ADR-RES): > 100 µM (inactive)
GI50 (MOLT-4): > 100 µM (inactive)
GI50 (NCI-H460): > 100 µM (inactive)
GI50 (RXF 393): > 100 µM (inactive)
GI50 (UACC-257): > 100 µM (inactive)
GI50 (SN12C): > 100 µM (inactive)
GI50 (CCRF-CEM): > 100 µM (inactive)
GI50 (A498): > 100 µM (inactive)
GI50 (SF-268): > 100 µM (inactive)
GI50 (OVCAR-3): > 100 µM (inactive)
GI50 (786-0): > 100 µM (inactive)
GI50 (SK-MEL-28): > 100 µM (inactive)
GI50 (SNB-19): > 100 µM (inactive)
GI50 (ACHN): > 100 µM (inactive)
GI50 (COLO 205): > 100 µM (inactive)
GI50 (UO-31): > 100 µM (inactive)
GI50 (OVCAR-5): > 100 µM (inactive)
GI50 (K562): > 100 µM (inactive)
GI50 (HCT-116): > 100 µM (inactive)
GI50 (U-251): > 100 µM (inactive)
GI50 (NCI-H23): > 100 µM (inactive)
GI50 (MDA-MB-435): > 100 µM (inactive)
GI50 (HT-29): > 100 µM (inactive)
GI50 (MDA-N): > 100 µM (inactive)
GI50 (Malme-3M): > 100 µM (inactive)
GI50 (MCF7): > 100 µM (inactive)
GI50 (DU-145): > 100 µM (inactive)
GI50 (EKVX): > 100 µM (inactive)
GI50 (TK-10): > 100 µM (inactive)
GI50 (HOP-62): > 100 µM (inactive)
GI50 (M14): > 100 µM (inactive)
GI50 (HCT-15): > 100 µM
GI50 (PC-3): > 100 µM (inactive)
GI50 (RPMI-8226): > 100 µM (inactive)
GI50 (SF-539): > 100 µM (inactive)
GI50 (BT-549): > 100 µM (inactive)
GI50 (SR): > 100 µM (inactive)
GI50 (SF-295): > 100 µM (inactive)
GI50 (HOP-92): > 100 µM (inactive)
GI50 (OVCAR-8): > 100 µM (inactive)
GI50 (HL-60): > 100 µM (inactive)
GI50 (KM12): > 100 µM (inactive)
